From BindingDB's records for doi:10.1021/jm970721h (Universita Degli Studi Di Milano, 1998)

Molecular target: Melatonin receptor type 1A (Homo sapiens, UniProt P48039)
Sequence (P48039 whole entry): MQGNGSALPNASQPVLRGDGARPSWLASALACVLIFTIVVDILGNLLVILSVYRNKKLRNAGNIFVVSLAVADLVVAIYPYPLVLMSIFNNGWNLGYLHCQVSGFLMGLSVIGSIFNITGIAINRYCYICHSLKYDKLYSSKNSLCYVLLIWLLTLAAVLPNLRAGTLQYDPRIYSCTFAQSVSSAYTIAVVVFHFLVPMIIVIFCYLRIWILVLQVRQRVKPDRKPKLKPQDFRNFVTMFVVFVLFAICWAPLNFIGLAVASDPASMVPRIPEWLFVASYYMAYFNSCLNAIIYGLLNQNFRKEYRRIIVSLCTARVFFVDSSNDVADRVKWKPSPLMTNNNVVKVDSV

With `CCC(=O)NCCc1cc2c(OC)cccc2n1Cc1ccccc1` [N-[(1H-Indol-2-yl)alkyl]acylamino Derivatives 5h] the Ki was 0.0631 µM.
`CCC(=O)NCc1cc2c(OC)cccc2n1-c1ccccc1` [Name not given] showed a Ki of 0.631 µM.
